Read-outs that look alike come from different tables or passages of the source.
Experiments:
human DGKα = biological target: T1, human DGKα (Homo sapiens, UniProt P23743); assay: DGKα LIPGLO assay (extruded liposome substrate), in vitro DGK inhibition; type: biochemical; conditions: read-out: DGKa LIPGLO IC50
T1 construct: TVMV protease cleavage site (C); Hexa-His (C); made in house; host or cells: Sf9 insect cells (baculovirus, Bac-to-Bac)

human DGKζ = biological target: T2, human DGKζ (Homo sapiens, UniProt Q13574); assay: DGKζ LIPGLO assay (extruded liposome substrate), in vitro DGK inhibition; type: biochemical; conditions: read-out: DGKz LIPGLO IC50
T2 construct: TVMV protease cleavage site (C); Hexa-His (C); made in house; host or cells: Sf9 insect cells (baculovirus, Bac-to-Bac)

Human venous whole blood = assay: Human whole blood IFN-γ assay; type: cell-based; conditions: human whole blood, read-out: INFg Whole Blood Normalized Agonist EC50;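 also: blood from healthy donors exposed to compound for 1 h before stimulation with anti-CD3 and anti-CD28 at 1 µg/mL each, IFN-γ quantified in supernatant by AlphaLISA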
Description: Human Whole Blood IFN-γ Assay
Human venous whole blood (22.5 μL per well), obtained from healthy donors, was pre-treated with compounds for one hour at 37° C. in a humidified 95% air/5% CO2 incubator. The blood was stimulated with 2.5 μL anti-human CD3 and anti-CD28 mAb at a final concentration of 1 μg/mL each for 24 hours at 37° C. IFN-γ in the supernatants was measured using AlphLISA kit (Cat # AL217).

[1] = Homo sapiens, 24 h, anti-CD3 plus anti-CD28, 24 hours, 3 μM reference compound = 100% activation
[2] = normalized to 3 μM reference compound with anti-CD3 plus anti-CD28 as 100% activation
[3] = Homo sapiens, 24 h, normalized to 3 μM reference compound with anti-CD3 plus anti-CD28 as 100% activation
[4] = anti-CD3 plus anti-CD28, 24 hours, 3 μM reference compound = 100% activation

T1 sequence (P23743 with tags, fused parts or gaps): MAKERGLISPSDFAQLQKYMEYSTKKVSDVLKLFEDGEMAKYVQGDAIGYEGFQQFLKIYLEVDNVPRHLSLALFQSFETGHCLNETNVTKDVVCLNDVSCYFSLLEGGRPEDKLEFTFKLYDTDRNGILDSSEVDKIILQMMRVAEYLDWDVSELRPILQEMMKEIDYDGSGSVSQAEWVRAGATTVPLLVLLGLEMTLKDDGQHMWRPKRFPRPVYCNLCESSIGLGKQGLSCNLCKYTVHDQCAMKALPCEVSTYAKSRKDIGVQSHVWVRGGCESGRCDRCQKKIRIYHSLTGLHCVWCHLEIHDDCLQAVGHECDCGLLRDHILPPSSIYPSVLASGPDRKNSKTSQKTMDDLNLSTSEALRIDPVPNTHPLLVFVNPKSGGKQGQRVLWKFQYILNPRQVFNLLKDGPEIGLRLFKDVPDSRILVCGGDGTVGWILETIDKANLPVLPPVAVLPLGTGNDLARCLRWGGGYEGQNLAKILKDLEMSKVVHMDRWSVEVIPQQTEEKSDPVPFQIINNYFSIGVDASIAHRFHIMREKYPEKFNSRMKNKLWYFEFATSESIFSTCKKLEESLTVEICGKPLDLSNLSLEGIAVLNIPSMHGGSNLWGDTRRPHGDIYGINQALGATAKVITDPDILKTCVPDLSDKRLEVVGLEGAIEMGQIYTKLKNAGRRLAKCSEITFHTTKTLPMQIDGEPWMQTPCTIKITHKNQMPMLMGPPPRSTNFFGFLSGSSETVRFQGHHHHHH
T2 sequence (Q13574 with tags, fused parts or gaps isoform Q13574-4): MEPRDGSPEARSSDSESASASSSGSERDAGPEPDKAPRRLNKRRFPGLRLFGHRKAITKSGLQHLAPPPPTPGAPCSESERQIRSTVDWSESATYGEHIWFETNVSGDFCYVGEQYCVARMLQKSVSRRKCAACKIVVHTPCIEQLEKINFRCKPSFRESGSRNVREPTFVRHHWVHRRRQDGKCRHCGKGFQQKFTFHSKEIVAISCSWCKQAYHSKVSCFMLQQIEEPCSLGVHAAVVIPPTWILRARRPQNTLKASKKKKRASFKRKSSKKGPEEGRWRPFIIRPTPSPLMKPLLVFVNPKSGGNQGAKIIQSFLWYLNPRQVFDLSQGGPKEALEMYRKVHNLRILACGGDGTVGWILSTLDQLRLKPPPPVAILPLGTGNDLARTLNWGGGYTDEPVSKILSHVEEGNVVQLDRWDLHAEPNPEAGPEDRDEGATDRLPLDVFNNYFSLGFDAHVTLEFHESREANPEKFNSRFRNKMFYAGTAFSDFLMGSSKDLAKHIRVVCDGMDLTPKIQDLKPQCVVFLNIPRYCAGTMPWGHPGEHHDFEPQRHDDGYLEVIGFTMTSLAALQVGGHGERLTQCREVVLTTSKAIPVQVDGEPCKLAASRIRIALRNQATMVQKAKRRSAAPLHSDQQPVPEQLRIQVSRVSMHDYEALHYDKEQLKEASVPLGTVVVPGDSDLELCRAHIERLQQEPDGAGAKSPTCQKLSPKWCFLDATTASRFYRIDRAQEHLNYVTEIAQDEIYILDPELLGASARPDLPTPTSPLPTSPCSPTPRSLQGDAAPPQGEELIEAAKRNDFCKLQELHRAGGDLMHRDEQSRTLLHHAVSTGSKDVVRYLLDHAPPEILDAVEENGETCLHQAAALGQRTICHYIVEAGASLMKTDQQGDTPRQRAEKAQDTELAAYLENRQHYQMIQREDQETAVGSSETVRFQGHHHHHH

SMILES	IC50 (human DGKα; DGKα liposome (LIPGLO) assay) [nM]	IC50 (human DGKζ; DGKζ liposome (LIPGLO) assay) [nM]	EC50 (Human venous whole blood; [1]) [nM]	IC50 (human DGKα; liposome (LIPGLO) assay) [nM]	IC50 (human DGKζ; liposome (LIPGLO) assay) [nM]	EC50 (Human venous whole blood; [2]) [nM]	EC50 (Human venous whole blood; [3]) [nM]	EC50 (Human venous whole blood; [4]) [nM]
Cc1ccc(C(c2ccc(F)cc2)N2CCN(c3c(C#N)c(=O)n(C)c4ccc(C#N)nc34)C[C@H]2C)nc1 (single isomer, unassigned) [Example 904]	170	1400	520					
CC[C@H]1CN(C(c2ccc(F)cc2)c2ccc(C(F)(F)F)cn2)[C@H](CC)CN1c1cc(=O)n(C)c2ccc(C#N)nc12 (stereo partly drawn) [Example 1040]				42	59	57		
CC[C@H]1CN(C(C)c2ccc(F)cc2F)[C@H](C)CN1c1cc(=O)n(C)c2ccc(C#N)nc12 (single isomer, unassigned) [Example 1137]				26	45	290		
C[C@@H]1CN(c2c(C#N)c(=O)n(C)c3ccc(C#N)nc23)CCN1Cc1ccccc1Cl [Example 997]	1100	3300	20000					
C[C@@H]1CN(c2cc(=O)n(C)c3ccc(C#N)nc23)[C@@H](C)CN1C(c1ccc(OC(F)(F)F)cc1)c1ccc(F)cn1 (single isomer, unassigned) [Example 466]				190	1800	5500		
C[C@@H]1CN(c2cc(=O)n(C)c3ccc(C#N)nc23)[C@@H](C)CN1C(c1ccc(O)cc1F)C(F)(F)F (stereo partly drawn) [Example 625]				230	2400		700	
CC[C@H]1CN(C(C)c2ccc(OC(F)(F)F)cc2)[C@H](C)CN1c1cc(=O)n(C)c2ccc(C#N)nc12 (single isomer, unassigned) [Example 1142]				700	1600	1200		
COC[C@H]1CN(c2cc(=O)n(C)c3ccc(C#N)nc23)[C@H](C)CN1C(c1ccc(F)cc1)c1ccc(F)cc1 [Example 1183, 8-((2R,5R)-4-(bis(4-fluorophenyl)methyl)-5-(methoxymethyl)-2-methylpiperazin-1-yl)-5-methyl-6-oxo-5,6-dihydro-1,5-naphthyridine-2-carbonitrile]				> 250000	8900		9200	
COCC(c1ccc(C(F)(F)F)cn1)N1C[C@H](C)N(c2cc(=O)n(C)c3ccc(C#N)nc23)C[C@H]1C (single isomer, unassigned) [Example 1277]				69	610		1400	
C[C@@H]1CN(c2c(C#N)c(=O)n(C)c3ccc(C#N)nc23)[C@@H](C)CN1C(c1ccccc1)c1ccc(F)cc1 (stereo partly drawn) [Example 808]	4200	1600						1300
CC(c1cccc(C(F)F)n1)N1C[C@H](C)N(c2cc(=O)n(C)c3ccc(C#N)nc23)C[C@H]1C (stereo partly drawn) [Example 1223]				16	110	520		
COc1ccc(C(c2cccc(F)c2)N2C[C@H](C)N(c3cc(=O)n(C)c4ccc(C#N)nc34)C[C@H]2C)nc1 (single isomer, unassigned) [Example 686]				4300	3400	560		
C[C@@H]1CN(c2cc(=O)n(C)c3ccc(C#N)nc23)[C@@H](C)CN1C(c1ccc(F)cc1)c1nc(C2CN(C)C2)no1 (single isomer, unassigned) [Example 1298]				2600	2700		13000	
C[C@@H]1CN(c2c(C#N)c(=O)n(C)c3ccc(C#N)nc23)[C@@H](C)CN1C(c1ccc(Cl)cc1)c1ncccc1F (single isomer, unassigned) [Example 822]	2700	13000						3200
C[C@@H]1CN(c2cc(=O)n(C)c3ccc(C#N)nc23)[C@@H](C)CN1C(c1ccc(F)cc1)C(F)(F)CO (single isomer, unassigned) [Example 1310]				6200	7500		3600	
COc1ccc(C(c2ccc(F)cc2)N2C[C@H](C)N(c3cc(=O)n(C)c4ccc(C#N)nc34)C[C@H]2C)cc1 (stereo partly drawn) [Example 658]				690	590	1500		
Cc1ncc(C(c2ccc(F)cc2)N2C[C@H](C)N(c3cc(=O)n(C)c4ccc(C#N)nc34)C[C@H]2C)cn1 (single isomer, unassigned) [Example 406]				2400	2800		11000	

SMILES	IC50 (human DGKα; DGKα liposome (LIPGLO) assay) [nM]	IC50 (human DGKζ; DGKζ liposome (LIPGLO) assay) [nM]	EC50 (Human venous whole blood; [1]) [nM]	IC50 (human DGKα; liposome (LIPGLO) assay) [nM]	IC50 (human DGKζ; liposome (LIPGLO) assay) [nM]	EC50 (Human venous whole blood; [2]) [nM]	EC50 (Human venous whole blood; [3]) [nM]	EC50 (Human venous whole blood; [4]) [nM]
Cc1ccc(C(c2cccc3c2OCCCO3)N2C[C@H](C)N(c3cc(=O)n(C)c4ccc(C#N)nc34)C[C@H]2C)nc1 (single isomer, unassigned) [Example 469]				1700	510	3200		
CC[C@H]1CN(C(C)c2ccc(OC(F)(F)F)cc2)[C@H](CC)CN1c1cc(=O)n(C)c2ccc(C#N)nc12 (single isomer, unassigned) [Example 1053]				21	140	210		
C[C@@H]1CN(c2c(C#N)c(=O)n(C)c3ccc(C#N)nc23)CCN1C(c1ccc(F)cc1)c1ccc(F)cn1 (stereo partly drawn) [Example 902]	250	2600						2200
CC[C@H]1CN(C(c2ccc(F)cc2)c2ccc(C#N)cc2)[C@H](COC)CN1c1cc(=O)n(C)c2ccc(C#N)nc12 (single isomer, unassigned) [Example 1170]				760	170		230	
CC(c1ccc(C2CC2)cc1)N1C[C@H](C)N(c2cc(=O)n(C)c3ccc(C#N)nc23)C[C@H]1C (single isomer, unassigned) [Example 1214]				75	75	220		
CC[C@@H]1CN(c2cc(=O)n(C)c3ccc(C#N)nc23)[C@@H](C)CN1Cc1ccc(OC(F)(F)F)cc1OC [Example 1081]				1500	680		250	
CC[C@H]1CN(C(C)c2ccc(OC(F)F)cc2)[C@H](CC)CN1c1cc(=O)n(C)c2ccc(C#N)nc12 (single isomer, unassigned) [Example 1373]				9.5	32	95		
CCC(c1ccc(C2CC2)cc1F)N1C[C@H](C)N(c2cc(=O)n(C)c3ccc(C#N)nc23)C[C@H]1C (stereo partly drawn) [Example 1218]				67	69		320	
CC[C@@H]1CN(c2cc(=O)n(C)c3ccc(C#N)nc23)[C@@H](C)CN1C(C)c1ccc(F)cc1 (single isomer, unassigned) [Example 1083]				37	79	75		
CC(C)c1noc(C(c2ccc(F)cc2)N2C[C@H](C)N(c3cc(=O)n(C)c4ccc(C#N)nc34)C[C@H]2C)n1 (single isomer, unassigned) [Example 748]	54	220						410
C[C@@H]1CN(c2c(C#N)c(=O)n(C)c3ccc(C#N)nc23)[C@@H](C)CN1C(c1ccc(F)cc1)c1nc(C2CC2)no1 (single isomer, unassigned) [Example 860]	410	1300	720					
C[C@@H]1CN(c2c(C#N)c(=O)n(C)c3ccc(C#N)nc23)CCN1C(c1ccc(F)cc1)c1ccc(C#N)cc1 (single isomer, unassigned) [Example 871]	1100	1300	3000					
C[C@@H]1CN(c2cc(=O)n(C)c3ccc(C#N)nc23)[C@@H](C)CN1C(c1ccc(F)cc1)c1cncnc1 (single isomer, unassigned) [Example 394]				42000	49000	18000		
Cc1ccc(C(c2cccc(Cl)c2)N2CCN(c3c(C#N)c(=O)n(C)c4ccc(C#N)nc34)C[C@H]2C)nc1 (single isomer, unassigned) [Example 928]	2400	1500	1700					
C[C@@H]1CN(c2c(C#N)c(=O)n(C)c3ccc(C#N)nc23)[C@@H](C)CN1C(c1ccc(Cl)cc1)c1ccc(Cl)cc1 [Example 805]	11000	1700	9800					
CC[C@@H]1CN(c2cc(=O)n(C)c3ccc(C#N)nc23)[C@@H](C)CN1Cc1ccc(F)cc1F [Example 1077]				460	320		140	
